Tests used:
[1] = molecular target: T1, Prostaglandin G/H synthase 1 (Homo sapiens, UniProt P23219); experiment: Compound was evaluated for percent inhibition of Prostaglandin G/H synthase 1 at the concentration of 10 uM
[2] = molecular target: T2, Prostaglandin G/H synthase 2 (Homo sapiens) (UniProt P35354); experiment: Compound was evaluated for percent inhibition of Prostaglandin G/H synthase 2 at the concentration of 10 uM
T2 sequence (whole entry): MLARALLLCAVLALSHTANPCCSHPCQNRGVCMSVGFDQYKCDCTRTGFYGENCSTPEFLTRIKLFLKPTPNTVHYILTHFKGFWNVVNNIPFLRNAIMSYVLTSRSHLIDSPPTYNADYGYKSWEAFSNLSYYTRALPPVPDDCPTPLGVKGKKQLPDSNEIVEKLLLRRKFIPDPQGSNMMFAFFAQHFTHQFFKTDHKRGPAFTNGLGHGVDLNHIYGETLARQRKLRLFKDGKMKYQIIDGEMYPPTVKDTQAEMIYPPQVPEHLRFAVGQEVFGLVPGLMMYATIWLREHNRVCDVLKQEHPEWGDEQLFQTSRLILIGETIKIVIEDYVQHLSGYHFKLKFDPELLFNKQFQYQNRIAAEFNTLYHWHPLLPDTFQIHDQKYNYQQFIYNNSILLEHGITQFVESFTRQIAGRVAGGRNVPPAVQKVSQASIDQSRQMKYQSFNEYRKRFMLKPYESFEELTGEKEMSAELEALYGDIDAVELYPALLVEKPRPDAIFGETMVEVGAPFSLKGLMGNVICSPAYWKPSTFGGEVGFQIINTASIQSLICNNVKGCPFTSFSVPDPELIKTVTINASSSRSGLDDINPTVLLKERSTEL

[3] = molecular target: T3, Prostaglandin G/H synthase 2 (Homo sapiens, UniProt P35354); experiment: Inhibitory activity was evaluated against human Prostaglandin G/H synthase 2 was determined
T3 sequence (P35354 whole entry): T2 sequence (whole entry)

[4] = molecular target: T1, Prostaglandin G/H synthase 1; experiment: Inhibitory activity was evaluated against human Prostaglandin G/H synthase 1 was determined
[5] = molecular target: T1, Prostaglandin G/H synthase 1; experiment: Compound was evaluated for percent inhibition of Prostaglandin G/H synthase 1 at the concentration of 0.3 uM
[6] = molecular target: T1, Prostaglandin G/H synthase 1; experiment: Compound was evaluated for the inhibition of Prostaglandin G/H synthase 1 at the concentration of 3 uM
[7] = molecular target: T2, Prostaglandin G/H synthase 2 (Homo sapiens); experiment: Compound was evaluated for percent inhibition of Prostaglandin G/H synthase 2 at the concentration of 0.3 uM

T1 sequence (P23219 whole entry): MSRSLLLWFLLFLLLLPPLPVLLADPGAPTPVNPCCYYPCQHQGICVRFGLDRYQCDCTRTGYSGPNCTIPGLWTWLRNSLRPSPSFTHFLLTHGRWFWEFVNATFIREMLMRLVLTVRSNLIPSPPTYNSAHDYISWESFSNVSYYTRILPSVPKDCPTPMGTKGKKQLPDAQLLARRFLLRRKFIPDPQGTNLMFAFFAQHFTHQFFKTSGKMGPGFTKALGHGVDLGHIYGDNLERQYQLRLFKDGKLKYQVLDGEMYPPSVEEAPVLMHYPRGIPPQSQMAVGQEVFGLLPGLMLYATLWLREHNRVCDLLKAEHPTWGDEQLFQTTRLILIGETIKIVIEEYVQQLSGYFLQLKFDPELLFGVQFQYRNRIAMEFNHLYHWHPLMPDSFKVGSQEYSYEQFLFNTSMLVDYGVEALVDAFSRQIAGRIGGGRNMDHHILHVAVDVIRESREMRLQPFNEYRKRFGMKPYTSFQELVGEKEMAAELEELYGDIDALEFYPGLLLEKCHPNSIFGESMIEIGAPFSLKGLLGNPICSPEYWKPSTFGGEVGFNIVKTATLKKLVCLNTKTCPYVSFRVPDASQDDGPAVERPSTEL

Compound: OCCN1c2ccccc2Sc2ccccc21
- inhibition [1]: 12%
- inhibition [2]: 14%

Compound: CC(O)CN1c2ccccc2Sc2ccccc21 (centres undefined)
- IC50 [3]: 5000 nM
- IC50 [4]: 1000 nM

Compound: O=C(O)CCN1c2ccccc2Sc2ccccc21
- inhibition [1]: 25%
- inhibition [2]: 14%

Compound: CC(C)(Oc1ccc(Cl)cc1)C(=O)NCCCN1c2ccccc2Sc2ccccc21
- IC50 [3]: 1300 nM
- inhibition [5]: 13%
- inhibition [6]: 17%
- inhibition [7]: 44%

Compound: CC(C)(COc1ccc(Br)cc1)C(=O)NCCCN1c2ccccc2Sc2ccccc21
- IC50 [3]: 21000 nM
- inhibition [5]: 12%
- inhibition [6]: 19%
- inhibition [7]: 34%

Compound: O=C(COc1ccc(Br)cc1)NCCCN1c2ccccc2Sc2ccccc21
- inhibition [7]: 15%

Compound: CCC(=O)NCCCN1c2ccccc2Sc2ccccc21
- inhibition [7]: 18%

Compound: O=C(CCC1CCCCC1)NCCCN1c2ccccc2Sc2ccccc21
- inhibition [7]: 15%

Compound: CC(S)CN1c2ccccc2Sc2ccccc21 (centres undefined)
- IC50 [3]: 4000 nM
- IC50 [4]: 500 nM

From ChEMBL document CHEMBL1130767, “Discovery of a new cyclooxygenase-2 lead compound through 3-D database searching and combinatorial chemistry” (Bioorg Med Chem Lett, 1998)
